Our source for the Ki values is patent US7109351B1, “Fused pyrrolecarboxamides; GABA brain receptor ligands” (Neurogen Corporation, priority 1999, dated 2006).

In this assay the target is benzodiazepine site of the GABAA receptor. The assay can be described thus: GABAA receptor binding assay (displacement of 3H-Ro15-1788). Particulars: rat cortical tissue homogenate, 0.5 nM 3H-Ro15-1788 [3H-Flumazenil], 30 min at 4° C. On the technique in general: Loss of bound radioactivity is the signal in a displacement assay; it reports binding, not function.

A word on the Ki: it is the equilibrium dissociation constant of an inhibitor or competing ligand from its target. Lower therefore signals higher affinity.

In the case of `CC1CC(=O)c2c(C(=O)Nc3ccc(OCCO)nc3)c[nH]c2C1` (stereo not shown) [Compound 15, N-[(2-Hydroxyethoxy)pyrid-5-yl]-4-oxo-6-methyl-4,5,6,7-tetrahydro-1H-indole-3-carboxamide], the inhibition constant (Ki) turned out to be 12 nM.
